# Legend:
# [1] = test system: Human metabolic pathways (KEGG); experiment: Urine pharmacometabolomics, peaks-to-pathway mummichog analysis; assay type: in vivo, human (healthy volunteers); conditions: urinary PMx analysis, 1000 mg and 2000 mg AP (either dose)
# Method: The protocol was published (Tee et al. [2022]).
# Plasma samples (blank and subject) were thawed from −80 °C and processed using cold protein precipitation (200 μL plasma + 600 μL acetone:acetonitrile:methanol [1:1:1]). After −20 °C incubation (1 h) and centrifugation (10,000 rpm, 4 °C, 10 min), supernatants were filtered (0.22 μm) into LC–MS vials. System suitability test using vendor-provided internal standards ensured instrument performance parameters met acceptance criteria prior to metabolomics analysis. Samples (plasma and urine) were prepared in four batches. Each batch was analyzed separately in positive and negative ionization modes using a global metabolomics approach, resulting in eight analytical batches. Each analytical batch commenced with blank water, blank water spiked with internal standard (IS), and blank plasma or urine (with and without IS), all meeting the acceptance criteria in Figure S6 and Figure S7. Five pooled quality control (PQC) samples were analyzed at batch start, with additional PQCs interspersed after every fourth subject sample to monitor LC–MS system stability. Chromatogram overlays of all PQCs for every batch were assessed for consistency and instrument stability. Overlays of PQCs with subject samples were also evaluated in Figure S8. All eight batches met predefined acceptance criteria prior to data processing.
# Dose-dependent PMx analyses compared pre-dose (T0) with post-dose time points (T2.5, T3, T3.5) for plasma and pre-dose (U0) with post-dose intervals (0–4 h [U1], 4–8 h [U2], 8–12 h [U3]) for urine, using positive and negative ion mode acquisition.
# PCA results for pre- and post-dose urine samples were obtained by performing similar statistical and multivariate analyses of metabolite data (Figure S5). Batch effects were not observed in the normalized datasets for both positive and negative modes at either dose. All urine samples were successfully analyzed, except for samples U13 and U14 for the 1000 mg AP dose in positive mode, which were not captured due to a power supply issue with the LC–MS during the analysis.
# [2] = set-up: method as in Songvut et al. [2023b]; conditions: ref Songvut et al. [2023b], cited from earlier work; for Cmax, previously reported / Tmax, previously reported: AP dose corresponding to 60 mg of andrographolide
Structure (SMILES),free compound detected in urine [1],"Cmax, previously reported [2] [ng/mL]","Tmax, previously reported [2] [min]",tolerance in human PK studies [2] [mg/day]
C=C1CC[C@@H]2[C@](C)(CO)[C@H](O)CC[C@@]2(C)[C@@H]1CCC1=CCOC1=O [14-deoxyandrographolide],detected no free,4.2 ± 3.4,60,
C=C1CC[C@@H]2[C@](C)(CO)[C@H](O)CC[C@@]2(C)[C@@H]1C/C=C1/C(=O)OC[C@H]1O [andrographolide],detected no free,72.1 ± 28.7,48,180 to 360
C=C1CC[C@@H]2[C@](C)(CO[C@@H]3O[C@H](CO)[C@@H](O)[C@H](O)[C@H]3O)CCC[C@@]2(C)[C@@H]1CCC1=CCOC1=O [neoandrographolide],detected no free,24.4 ± 5.6,54,

# Source: article PMC12935787, “Clinical pharmacokinetics and pharmacometabolomics of Andrographis paniculata capsules: Bridging drug disposition and metabolic response to precision medicine” (Naunyn-Schmiedeberg's Archives of Pharmacology, 2025)
